Consider one compound from patent publication US10178865B2, “Insect repellent” (priority 2013, dated 2019).

For this experiment, the system named is Red imported fire ant (Solenopsis invicta). Put plainly: Fire ant repellency, honey plates near mounds (Example 6). Format: in vivo. To be noted: separate trial; about 100 mg per plate; within 4 feet of mounds. An excerpt:
Formulation A was poured into a plastic spray bottle and was sprayed onto 20 eight inch paper plates, one squeeze of the pump trigger per plate. […] Ten treated plates were placed randomly on the ground on a farm in Sparks, Ga., USA and ten control (untreated) plates were placed on the ground about 3 feet from the treated plates. Ten treated plates were placed about 4 feet from active Red imported fire ant mounds and ten control plates were placed near the same mounds no closer than 3 feet from the treated plates. Each plate received approximately 15 mL of an aqueous 25% honey solution.
Fifty percent of the control plates had active fire ant feeding within 15 minutes and 100% of the control plates had active fire ant feeding within 30 minutes.

`COC(=O)c1ccccc1N` [methyl anthranilate]: the “deterrence of fire ant feeding” value is “did not deter fire ants from feeding”.
